ChEMBL document CHEMBL1909514, “Imidazo[2,1-b]thiazole guanylhydrazones as RSK2 inhibitors” (Eur J Med Chem, 2011)
pIC50: −log10 of the molar value.

Columns and labels:
[1] = Growth inhibition of human Hs 578T cells after 48 hrs by SRB assay; assay type: functional
MCF7 = assay: Growth inhibition of human MCF7 cells after 48 hrs by SRB assay; assay type: functional; settings: MCF7, 48 h
DU-145 = assay: Growth inhibition of human DU145 cells after 48 hrs by SRB assay; assay type: functional; settings: DU-145, 48 h
PC-3 = assay: Growth inhibition of human PC3 cells after 48 hrs by SRB assay; assay type: functional; settings: PC-3, 48 h
UO-31 = assay: Growth inhibition of human UO31 cells after 48 hrs by SRB assay; assay type: functional; settings: UO-31, 48 h
TK-10 = assay: Growth inhibition of human TK10 cells after 48 hrs by SRB assay; assay type: functional; settings: TK-10, 48 h
RXF 393 = assay: Growth inhibition of human RXF393 cells after 48 hrs by SRB assay; assay type: functional; settings: RXF 393, 48 h
NCI/ADR-RES = assay: Growth inhibition of human NCI/ADR-RES cells after 48 hrs by SRB assay; assay type: functional
OVCAR-5 = assay: Growth inhibition of human OVCAR5 cells after 48 hrs by SRB assay; assay type: functional; settings: OVCAR-5, 48 h
OVCAR-4 = assay: Growth inhibition of human OVCAR4 cells after 48 hrs by SRB assay; assay type: functional; settings: OVCAR-4, 48 h
OVCAR-3 = assay: Growth inhibition of human OVCAR3 cells after 48 hrs by SRB assay; assay type: functional; settings: OVCAR-3, 48 h
SK-MEL-28 = assay: Growth inhibition of human SK-MEL-28 cells after 48 hrs by SRB assay; assay type: functional; settings: SK-MEL-28, 48 h
M14 = assay: Growth inhibition of human M14 cells after 48 hrs by SRB assay; assay type: functional; settings: M14, 48 h
MDA-MB-435 = assay: Growth inhibition of human MDA-MB-435 cells after 48 hrs by SRB assay; assay type: functional; settings: MDA-MB-435, 48 h
SNB-75 = assay: Growth inhibition of human SNB75 cells after 48 hrs by SRB assay; assay type: functional; settings: SNB-75, 48 h
SW-620 = assay: Growth inhibition of human SW620 cells after 48 hrs by SRB assay; assay type: functional; settings: SW-620, 48 h
KM12 = assay: Growth inhibition of human KM12 cells after 48 hrs by SRB assay; assay type: functional; settings: KM12, 48 h
HCT-15 = assay: Growth inhibition of human HCT15 cells after 48 hrs by SRB assay; assay type: functional; settings: HCT-15, 48 h
HCT-116 = assay: Growth inhibition of human HCT116 cells after 48 hrs by SRB assay; assay type: functional; settings: HCT-116, 48 h
COLO 205 = assay: Growth inhibition of human COLO205 cells after 48 hrs by SRB assay; assay type: functional; settings: COLO 205, 48 h
NCI-H23 = assay: Growth inhibition of human NCI-H23 cells after 48 hrs by SRB assay; assay type: functional; settings: NCI-H23, 48 h
HOP-62 = assay: Growth inhibition of human HOP62 cells after 48 hrs by SRB assay; assay type: functional; settings: HOP-62, 48 h
MOLT-4 = assay: Growth inhibition of human MOLT4 cells after 48 hrs by SRB assay; assay type: functional; settings: MOLT-4, 48 h
K562 = assay: Growth inhibition of human K562 cells after 48 hrs by SRB assay; assay type: functional; settings: K562, 48 h
CCRF-CEM = assay: Growth inhibition of human CCRF-CEM cells after 48 hrs by SRB assay; assay type: functional
HL-60(TB) = assay: Growth inhibition of human HL-60(TB) cells after 48 hrs by SRB assay; assay type: functional; settings: HL-60, 48 h
[2] = molecular target: T1, Serine/threonine-protein kinase Chk1 (Homo sapiens, UniProt O14757)
T1 sequence (O14757 whole entry): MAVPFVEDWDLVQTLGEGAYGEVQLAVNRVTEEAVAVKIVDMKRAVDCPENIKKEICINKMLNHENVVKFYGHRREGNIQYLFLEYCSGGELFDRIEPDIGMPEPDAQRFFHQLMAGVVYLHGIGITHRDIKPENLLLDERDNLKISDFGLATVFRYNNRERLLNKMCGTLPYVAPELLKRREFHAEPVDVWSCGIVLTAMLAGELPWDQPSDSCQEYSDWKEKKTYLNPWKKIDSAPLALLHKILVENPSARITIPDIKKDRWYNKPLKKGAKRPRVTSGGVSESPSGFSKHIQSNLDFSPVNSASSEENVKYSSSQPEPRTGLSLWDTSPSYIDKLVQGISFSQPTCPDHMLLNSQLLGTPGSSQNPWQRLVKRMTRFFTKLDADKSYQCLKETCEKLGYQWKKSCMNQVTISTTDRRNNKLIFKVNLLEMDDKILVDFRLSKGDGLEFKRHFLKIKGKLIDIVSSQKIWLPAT

[3] = molecular target: T1, Serine/threonine-protein kinase Chk1; remark: listed apart in the source
Description: Inhibition of CHK1 assessed as inhibition of substrate phosphorylation using fluorescent peptide substrate by microplate reader assay

[4] = molecular target: T2, Ribosomal protein S6 kinase alpha-3 (Homo sapiens, UniProt P51812)
Description: Inhibition of RSK2 assessed as inhibition of substrate phosphorylation using fluorescent peptide substrate by microplate reader assay

[5] = molecular target: T2, Ribosomal protein S6 kinase alpha-3; remark: listed apart in the source
[6] = molecular target: ALK tyrosine kinase receptor (Homo sapiens, UniProt Q9UM73)
[7] = read-out: pLC50 (the source's name) (converted)

T2 sequence (P51812 whole entry): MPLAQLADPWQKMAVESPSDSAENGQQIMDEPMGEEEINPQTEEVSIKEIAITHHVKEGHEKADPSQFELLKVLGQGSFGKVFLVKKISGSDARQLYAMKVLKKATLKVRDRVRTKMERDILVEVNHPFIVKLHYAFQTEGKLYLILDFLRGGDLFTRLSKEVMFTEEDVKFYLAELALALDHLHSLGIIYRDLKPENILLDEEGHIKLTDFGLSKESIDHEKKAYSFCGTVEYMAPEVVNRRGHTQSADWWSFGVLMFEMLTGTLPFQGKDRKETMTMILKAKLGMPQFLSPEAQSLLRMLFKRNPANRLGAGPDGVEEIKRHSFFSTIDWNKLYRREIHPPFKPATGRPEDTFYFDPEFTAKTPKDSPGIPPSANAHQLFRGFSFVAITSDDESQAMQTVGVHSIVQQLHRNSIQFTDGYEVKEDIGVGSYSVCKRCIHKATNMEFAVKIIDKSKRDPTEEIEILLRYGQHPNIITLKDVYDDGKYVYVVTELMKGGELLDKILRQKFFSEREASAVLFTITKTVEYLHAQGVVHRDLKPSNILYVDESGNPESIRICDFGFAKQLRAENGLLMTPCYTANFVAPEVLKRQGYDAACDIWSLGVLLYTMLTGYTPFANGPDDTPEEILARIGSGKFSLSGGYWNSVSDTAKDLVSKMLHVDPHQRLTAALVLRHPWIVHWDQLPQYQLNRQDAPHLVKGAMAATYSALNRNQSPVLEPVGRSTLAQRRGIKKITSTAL
Chain of ALK tyrosine kinase receptor (Q9UM73 whole entry): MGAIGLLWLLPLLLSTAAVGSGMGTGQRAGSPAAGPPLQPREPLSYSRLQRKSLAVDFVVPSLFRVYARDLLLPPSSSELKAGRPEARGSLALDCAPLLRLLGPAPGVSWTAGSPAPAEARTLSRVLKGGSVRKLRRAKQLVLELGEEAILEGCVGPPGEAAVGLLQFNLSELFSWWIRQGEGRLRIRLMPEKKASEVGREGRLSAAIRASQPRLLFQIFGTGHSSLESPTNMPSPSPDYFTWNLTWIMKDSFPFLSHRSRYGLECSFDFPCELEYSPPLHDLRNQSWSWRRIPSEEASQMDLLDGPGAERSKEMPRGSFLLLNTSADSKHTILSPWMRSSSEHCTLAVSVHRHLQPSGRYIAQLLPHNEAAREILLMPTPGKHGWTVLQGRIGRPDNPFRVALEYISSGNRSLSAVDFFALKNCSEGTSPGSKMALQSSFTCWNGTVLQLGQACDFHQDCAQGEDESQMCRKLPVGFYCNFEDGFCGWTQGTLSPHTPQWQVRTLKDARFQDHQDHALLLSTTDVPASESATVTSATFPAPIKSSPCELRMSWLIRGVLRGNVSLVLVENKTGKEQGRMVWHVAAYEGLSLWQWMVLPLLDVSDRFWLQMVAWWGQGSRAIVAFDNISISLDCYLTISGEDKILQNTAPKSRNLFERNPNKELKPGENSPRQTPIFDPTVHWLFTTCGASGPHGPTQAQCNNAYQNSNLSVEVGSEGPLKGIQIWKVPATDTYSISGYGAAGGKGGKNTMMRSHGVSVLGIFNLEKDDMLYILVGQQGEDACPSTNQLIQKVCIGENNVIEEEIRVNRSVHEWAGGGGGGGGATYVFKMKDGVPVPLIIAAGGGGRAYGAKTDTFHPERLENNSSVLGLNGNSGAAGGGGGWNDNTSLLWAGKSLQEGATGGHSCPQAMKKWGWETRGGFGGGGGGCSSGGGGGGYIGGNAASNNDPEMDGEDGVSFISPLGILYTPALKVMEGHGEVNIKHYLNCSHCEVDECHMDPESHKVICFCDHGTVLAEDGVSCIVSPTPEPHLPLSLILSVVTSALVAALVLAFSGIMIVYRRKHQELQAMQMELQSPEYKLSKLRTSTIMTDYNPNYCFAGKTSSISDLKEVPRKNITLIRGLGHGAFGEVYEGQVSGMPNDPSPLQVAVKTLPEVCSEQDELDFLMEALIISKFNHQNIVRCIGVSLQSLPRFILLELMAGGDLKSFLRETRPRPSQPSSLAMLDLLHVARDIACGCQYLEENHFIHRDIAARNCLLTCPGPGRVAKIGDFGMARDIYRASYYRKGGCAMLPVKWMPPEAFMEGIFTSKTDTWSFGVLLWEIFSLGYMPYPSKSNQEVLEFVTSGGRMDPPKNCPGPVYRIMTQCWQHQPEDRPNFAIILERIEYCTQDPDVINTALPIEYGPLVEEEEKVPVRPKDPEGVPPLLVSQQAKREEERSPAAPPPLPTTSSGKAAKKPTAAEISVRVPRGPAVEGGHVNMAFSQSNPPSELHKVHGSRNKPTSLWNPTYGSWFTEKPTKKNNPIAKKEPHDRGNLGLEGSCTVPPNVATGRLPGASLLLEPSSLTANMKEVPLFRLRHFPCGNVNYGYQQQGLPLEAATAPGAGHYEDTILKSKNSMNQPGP

Compound: N=C(N)N/N=C\c1c(-c2ccc([N+](=O)[O-])cc2)nc2sc(Br)cn12
- GI50 [1]: 288 nM
- CC50 [1, 7]: 3470 nM
- TGI ([1]; read-out: pTGI (converted)): 933 nM
- GI50 (MCF7): 162 nM
- TGI (MCF7; read-out: pTGI (converted)): 324 nM
- GI50 (DU-145): 200 nM
- CC50 (DU-145; [7]): 813 nM
- TGI (DU-145; read-out: pTGI (converted)): 398 nM
- GI50 (PC-3): 186 nM
- CC50 (PC-3; [7]): 759 nM
- TGI (PC-3; read-out: pTGI (converted)): 380 nM
- GI50 (UO-31): 174 nM
- CC50 (UO-31; [7]): 676 nM
- TGI (UO-31; read-out: pTGI (converted)): 355 nM
- GI50 (TK-10): 269 nM
- CC50 (TK-10; [7]): 4470 nM
- TGI (TK-10; read-out: pTGI (converted)): 1100 nM
- GI50 (RXF 393): 186 nM
- CC50 (RXF 393; [7]): 759 nM
- TGI (RXF 393; read-out: pTGI (converted)): 372 nM
- GI50 (NCI/ADR-RES): 219 nM
- CC50 (NCI/ADR-RES; [7]): 3550 nM
- TGI (NCI/ADR-RES; read-out: pTGI (converted)): 891 nM
- GI50 (OVCAR-5): 186 nM
- CC50 (OVCAR-5; [7]): 851 nM
- TGI (OVCAR-5; read-out: pTGI (converted)): 398 nM
- GI50 (OVCAR-4): 191 nM
- CC50 (OVCAR-4; [7]): 776 nM
- TGI (OVCAR-4; read-out: pTGI (converted)): 380 nM
- GI50 (OVCAR-3): 204 nM
- CC50 (OVCAR-3; [7]): 724 nM
- TGI (OVCAR-3; read-out: pTGI (converted)): 380 nM
- GI50 (SK-MEL-28): 191 nM
- CC50 (SK-MEL-28; [7]): 676 nM
- TGI (SK-MEL-28; read-out: pTGI (converted)): 363 nM
- GI50 (M14): 229 nM
- CC50 (M14; [7]): 1660 nM
- TGI (M14; read-out: pTGI (converted)): 537 nM
- GI50 (MDA-MB-435): 251 nM
- CC50 (MDA-MB-435; [7]): 5370 nM
- TGI (MDA-MB-435; read-out: pTGI (converted)): 7410 nM
- GI50 (SNB-75): 204 nM
- CC50 (SNB-75; [7]): 1290 nM
- TGI (SNB-75; read-out: pTGI (converted)): 4680 nM
- GI50 (SW-620): 182 nM
- CC50 (SW-620; [7]): 891 nM
- TGI (SW-620; read-out: pTGI (converted)): 407 nM
- GI50 (KM12): 200 nM
- CC50 (KM12; [7]): 759 nM
- TGI (KM12; read-out: pTGI (converted)): 389 nM
- GI50 (HCT-15): 302 nM
- CC50 (HCT-15; [7]): > 100000 nM
- TGI (HCT-15; read-out: pTGI (converted)): 26900 nM
- GI50 (HCT-116): 166 nM
- CC50 (HCT-116; [7]): 832 nM
- TGI (HCT-116; read-out: pTGI (converted)): 302 nM
- GI50 (COLO 205): 166 nM
- CC50 (COLO 205; [7]): 646 nM
- TGI (COLO 205; read-out: pTGI (converted)): 331 nM
- GI50 (NCI-H23): 389 nM
- CC50 (NCI-H23; [7]): 3980 nM
- TGI (NCI-H23; read-out: pTGI (converted)): 4470 nM
- GI50 (HOP-62): 191 nM
- CC50 (HOP-62; [7]): 851 nM
- TGI (HOP-62; read-out: pTGI (converted)): 3980 nM
- GI50 (MOLT-4): 195 nM
- GI50 (K562): 40.7 nM
- GI50 (CCRF-CEM): 102 nM
- CC50 (CCRF-CEM; [7]): > 100000 nM
- GI50 (HL-60(TB)): 219 nM
- pIC50 [2]: 4.86
- pIC50 [3]: < 4.00
- pIC50 [4]: 5.91
- pIC50 [5]: 6.22
- pIC50 [6]: < 4.70
